conditions: pH 1.0

| SMILES | logD |
| --- | --- |
| Oc1cccc(Br)c1 | 2.59 |
| O=C(O)c1cccc(Cl)c1 | 2.51 |

same assay, conditions: pH 13.0

| SMILES | logD |
| --- | --- |
| Cc1ccccc1N | 1.44 |
| Cc1cccc(N)c1 | 1.49 |
| Nc1cccc([N+](=O)[O-])c1 | 1.43 |
| Nc1ccc(Br)cc1 | 2 |
| Nc1ccc(Cl)cc1 | 1.8 |
| Nc1cccc(I)c1 | 2.86 |

conditions: not given

| logP | SMILES |
| --- | --- |
| 1.99 | O=C(O)c1ccc(F)cc1 |
| 3 | O=C(O)c1cccc(I)c1 |

| SMILES | logP |
| --- | --- |
| Oc1ccc(I)cc1 | 2.82 |

From the SangsterLogP compilation
